# How the values were obtained:
# Aβ40 = Aβ40 (Homo sapiens, UniProt P05067); assay: ThT Aβ aggregation assay (kinetic Thioflavin T fluorescence); format: biochemical; details: 20 μM Aβ, DMSO control at 80 hr = 0% inhibition, number in parenthesis = compound ID 1027 in that experiment; for inhibition at 10 µM: compound 10 μM, read-out: % inhib Thioflavin T Aβ 40 10 μM; for inhibition at 5 µM: 80 h, compound 5 μm (so in the source), read-out: % inhib Thioflavin T Aβ 40 (5 μm); for % inhib Thioflavin T Aβ 40 (3 μm): compound 3 μm (so in the source)
# Description: Preparation of Aβ40 Stock Solutions
# Aβ40 (1.0 mg) was pre-treated in a 1.5 mL microfuge tube with HFIP (1 mL) and sonicated for 20 min to disassemble any pre-formed Aβ aggregates. The HFIP was removed with a stream of argon and the Aβ dissolved in Tris base (5.8 mL, 20 mM, pH ˜10). The pH was adjusted to 7.4 with concentrated HCl (˜10 μL) and the solution filtered using a syringe filter (0.2 μm) before being used.
# The kinetic ThT assay for Aβ aggregation is similar to that of Chalifour et al (Chalifour et al, 2003, J. Biol. Chem. 278:34874-81). Briefly, pre-treated Aβ40 or Aβ42 (40 μM in 20 mM Tris, pH 7.4) was diluted with an equal volume of 8 μM Thioflavin T (ThT) in Tris (20 mM, pH 7.4, 300 mM NaCl). Aliquots of Aβ/ThT (200 μL) were added to wells of a black polystyrene 96-well plate, followed by 2 μL of a compound in DMSO (variable concentration), or DMSO alone (controls). Incubations were performed in triplicate and were taken to contain 20 μM Aβ, various concentration of compound in 20 mM Tris, pH 7.4, 150 mM NaCl, 1% DMSO. Plates were covered with clear polystyrene lids and incubated at 37° C. in a Tecan Genios microplate reader.
# Analysis of ThT and ThS Aggregation Assays
# Fluorescence readings (λex=450 nm, λem=480 nm) were taken every 15 min., after first shaking at high intensity for 15 s and allowing to settle for 10 s before each reading. Active compounds attenuated the increase in fluorescence over time that occurred in controls. In FIGS. 1-7, the time this procedure was performed extended to 80 hours (rightmost part of X-axis), at which point fluorescence increase generally reached an asymptote. Applying a definition of DMSO control at 80 hr as 100% aggregation (0% inhibition) and DMSO control at 0 hr as 0% aggregation (100% inhibition), a % inhibition score where higher is better can be calculated for a given concentration of compound. By repeating this procedure over several concentrations, a […] (IC50) can be measured, as is given in the table below for some compounds.
# [1] = biological target: Terminally biotinylated beta-amyloid (Aβ42) (Homo sapiens, UniProt P05067); assay: Aβ42 biotinylated (biotin-AB) oligomerization assay, NeutrAvidin capture ELISA; format: biochemical; details: approximate value; 1 hr oligomerization at room temperature; read-out: IC50 Aβ 42-bio
# Procedure, shortened: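 Biotin-Aβ42, pretreated with HFIP/TFA to remove seeds, oligomerized 1 h at room temperature with compound in 20 mM sodium phosphate pH 7.5, 150 mM NaCl (DMSO up to 1%). Oligomers captured on NeutrAvidin plates, detected with streptavidin-HRP/TMB at 450 nm; IC50 approximate, in µM.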
# Chain of Aβ40 (P05067 672-711, species assumed): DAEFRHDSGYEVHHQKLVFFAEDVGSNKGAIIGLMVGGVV
# Chain of Terminally biotinylated beta-amyloid (Aβ42) (P05067 672-713, species assumed): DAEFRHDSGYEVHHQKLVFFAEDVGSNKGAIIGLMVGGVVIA
inhibition at 10 µM (Aβ40) [%],IC50 [1] [µM],inhibition at 5 µM (Aβ40) [%],% inhib Thioflavin T Aβ 40 (3 μm) (Aβ40) [%],SMILES
27,4.4,–,–,Cc1ccc(-c2cc(N3CC(CN4CCCC4)C3)c3nonc3c2)cc1Cl [compound 1490]
20,30.1,–,–,CC(=O)N1CCC=C(c2cc(N3CC(CN4CCCC4)C3)c3nonc3c2)C1 [compound 1521]
36,8.21,–,–,COc1ccc(-c2cc(N3CC(CN4CCCC4)C3)c3nonc3c2)cc1OC [compound 1483]
–,4.1,37,–,CN(C)C1CCN(c2cc(-c3cccc(C(O)C(F)(F)F)c3)cc3nonc23)CC1 (stereo not shown) [compound 1466]
30,1.83,–,–,O=C(c1cc(N2CC(CN3CCCC3)C2)c2nonc2c1)C(F)(F)F [compound 1477]
77,3.1,–,–,OC(c1ccccc1-c1cc(N2CC(CN3CCCC3)C2)c2nonc2c1)C(F)(F)F (stereo not shown) [compound 1474]
72,5.27,–,–,c1ccc(Oc2ccccc2-c2cc(N3CC(CN4CCCC4)C3)c3nonc3c2)cc1 [compound 1504]
34,23.3,–,–,OCc1ccccc1-c1cc(N2CC(CN3CCCC3)C2)c2nonc2c1 [compound 1499]
31,18.1,–,–,c1cc(N2CC(CN3CCCC3)C2)c2nonc2c1 [compound 1473]
55,7.8,53,–,COC(c1cc(N2CC(CN3CCCC3)C2)c2nonc2c1)C(F)(F)F (stereo not shown) [compound 1539]
50,1.8,41,–,CCN(CC)C(=O)c1cc(N2CC(CN3CCCC3)C2)c2nonc2c1 [compound 1540]
84,1.1,63,–,OC(c1ccc(-c2cc(N3CC(CN4CCCC4)C3)c3nonc3c2)s1)C(F)(F)F (stereo not shown) [compound 1543]
62,> 20,–,–,Brc1cc(N2CC(CN3CCOCC3)C2)c2nonc2c1 [compound 1470]
71,> 20,–,–,c1cc(-c2cc(N3CC(CN4CCCC4)C3)c3nonc3c2)cs1 [compound 1509]
55,1.3,–,–,COCCN1CCC=C(c2cc(N3CC(CN4CCCC4)C3)c3nonc3c2)C1 [compound 1523]
79,10.5,–,–,c1coc(-c2cc(N3CC(CN4CCCC4)C3)c3nonc3c2)c1 [compound 1530]
46,6.1,–,–,OC(c1cc(N2CC(CN3CCCC3)C2)c2nonc2c1)C(F)(F)F (stereo not shown) [compound 1520]
68,27.1,–,–,CSc1ccccc1-c1cc(N2CC(CN3CCCC3)C2)c2nonc2c1 [compound 1532]
83,2.46,–,–,CCCc1ccc(-c2cc(N3CC(CN4CCCC4)C3)c3nonc3c2)cc1 [compound 1507]
65,> 20,–,–,O=C(C1CN(c2cc(Br)cc3nonc23)C1)N1CCCC1 [compound 1497]
77,2.9,71,–,OC(c1cc(-c2cc(N3CC(CN4CCCC4)C3)c3nonc3c2)cs1)C(F)(F)F (stereo not shown) [compound 1535]
55,4.78,–,–,FC(F)(F)c1ccc(-c2cc(N3CC(CN4CCCC4)C3)c3nonc3c2)cc1 [compound 1502]
61,16.7,–,–,COc1ccc(-c2cc(N3CC(CN4CCCC4)C3)c3nonc3c2)c(OC)c1 [compound 1515]
61,–,37,–,OC(c1cc(-c2cc(N3CCC(N4CCCC4)CC3)c3nonc3c2)cs1)C(F)(F)F (stereo not shown) [compound 1463]
41,13.5,–,–,Clc1ccc(-c2cc(N3CC(CN4CCCC4)C3)c3nonc3c2)cn1 [compound 1496]

inhibition at 10 µM (Aβ40) [%],IC50 [1] [µM],inhibition at 5 µM (Aβ40) [%],% inhib Thioflavin T Aβ 40 (3 μm) (Aβ40) [%],SMILES
48,> 20,–,–,CS(=O)(=O)c1ccc(-c2cc(N3CC(CN4CCCC4)C3)c3nonc3c2)cc1 [compound 1501]
36,12.2,–,–,c1cncc(-c2cc(N3CC(CN4CCCC4)C3)c3nonc3c2)c1 [compound 1476]
54,2.9,47,–,O=C(c1cc(N2CC(CN3CCCC3)C2)c2nonc2c1)N1CCOCC1 [compound 1538]
31,8.69,–,–,COc1ccc(-c2cc(N3CC(CN4CCCC4)C3)c3nonc3c2)cc1C [compound 1488]
64,5.91,–,–,FC(F)(F)Oc1ccccc1-c1cc(N2CC(CN3CCCC3)C2)c2nonc2c1 [compound 1495]
45,2.7,–,–,CN(C)C(=O)c1cccc(-c2cc(N3CC(CN4CCCC4)C3)c3nonc3c2)c1 [compound 1531]
35,> 20,–,–,CS(=O)(=O)N1CC=C(c2cc(N3CC(CN4CCCC4)C3)c3nonc3c2)CC1 [compound 1518]
29,4.4,–,–,OC(c1ccccc1-c1cc(N2CC(CN3CCOCC3)C2)c2nonc2c1)C(F)(F)F (stereo not shown) [compound 1471]
27,21.3,–,–,COc1cccc(OC)c1-c1cc(N2CC(CN3CCCC3)C2)c2nonc2c1 [compound 1511]
36,> 20,15,–,CN(C)C(=O)c1ccccc1-c1cc(N2CC(CN3CCCC3)C2)c2nonc2c1 [compound 1542]
47,> 20,–,–,CN(C)C(=O)c1ccc(-c2cc(N3CC(CN4CCCC4)C3)c3nonc3c2)cc1 [compound 1516]
35,5.6,–,–,CS(=O)(=O)N1C=C(c2cc(N3CC(CN4CCCC4)C3)c3nonc3c2)CCC1 [compound 1533]
33,0.62,–,–,CC(C)(C)c1ccc(-c2cc(N3CC(CN4CCCC4)C3)c3nonc3c2)cc1 [compound 1487]
61,4.2,43,–,Cn1nccc1-c1cc(N2CC(CN3CCCC3)C2)c2nonc2c1 [compound 1536]
56,6.5,–,–,FC(F)(F)c1cccc(-c2cc(N3CC(CN4CCCC4)C3)c3nonc3c2)c1 [compound 1484]
50,7.8,–,–,c1cc(-c2cc(N3CC(CN4CCCC4)C3)c3nonc3c2)ccn1 [compound 1528]
77,12,–,–,CC(=O)c1ccc(-c2cc(N3CC(CN4CCCC4)C3)c3nonc3c2)cc1 [compound 1512]
51,> 20,–,–,COc1cccc(-c2cc(N3CC(CN4CCCC4)C3)c3nonc3c2)c1OC [compound 1500]
57,12.9,–,–,N#Cc1cccc(-c2cc(N3CC(CN4CCCC4)C3)c3nonc3c2)c1 [compound 1493]
45,2.01,–,–,Cc1ccc(-c2cc(N3CC(CN4CCCC4)C3)c3nonc3c2)c2ccccc12 [compound 1494]
33,> 20,–,–,CC(=O)N1CC=C(c2cc(N3CC(CN4CCCC4)C3)c3nonc3c2)CC1 [compound 1503]
–,–,–,23,OC(c1cccc(-c2cc(N3CCC3)c3nonc3c2)c1)C(F)(F)F (stereo not shown) [compound 1432]
–,–,–,26,"O=C(c1ccccc1)N1CCN(c2ccc([N+](=O)[O-])c(Nc3ccccc3)c2)CC1 [compound 1027, reference compound]"
–,–,–,52,OCC1CN(c2cc(-c3cccc(C(O)C(F)(F)F)c3)cc3nonc23)C1 (stereo not shown) [compound 1428]

SMILES,inhibition at 10 µM (Aβ40) [%],IC50 [1] [µM],inhibition at 5 µM (Aβ40) [%],% inhib Thioflavin T Aβ 40 (3 μm) (Aβ40) [%]
CN1CC=C(c2cc(N3CC(CN4CCCC4)C3)c3nonc3c2)CC1 [compound 1517],33,6.8,–,–
COCCN1CC=C(c2cc(N3CC(CN4CCCC4)C3)c3nonc3c2)CC1 [compound 1519],53,8.2,–,–

# Reference: patent US9938249B2, “Anti-amyloid compounds containing benzofurazan” (Treventis Corporation, priority 2014, dated 2018)
